These are literature values, as cited in US20070231388A1, “Novel Pharmaceutical Dosage Form and Manufacturing Process” (Atlana Pharma AG, priority 2004, published 2007).

The conditions of the data set: in comparison to pantoprazole itself or to pantoprazole sodium sesquihydrate.

As to `COc1ccnc(C[S+]([O-])c2nc3cc(OC(F)F)ccc3[n-]2)c1OC.COc1ccnc(C[S+]([O-])c2nc3cc(OC(F)F)ccc3[n-]2)c1OC.O.O.[Mg+2]` (stereo not shown) [Magnesium bis[5-[difluoromethoxy]-2-[[3,4-dimethoxy-2-pyridinyl]-methyl]sulfinyl]-1H-benzimidazolide]dihydrate], the stability properties entry is “improved stability properties”.
